For one assay, the target named is D-Apt49. As to the kind of experiment: Homogeneous electrochemical competitive binding assay in 20% fetal bovine serum. As to the method:
• Figure 1: Electrochemically competitive assay of the invention. Left-hand column: before the addition of the sample: a first redox signal is measured. Right-hand column: after the addition of a sample containing the target to be detected or measured: a second redox signal is measured. (A) Homogeneous electrochemically competitive assay: the presence of the target disrupts the complex formed between the oligonucleotide ligand and the redox-labeled target. […] (B) Heterologous electrochemically competitive assay, wherein the oligonucleotide ligand is attached to a solid phase: the presence of the target disrupts the complex formed between the oligonucleotide ligand and the redox-labeled target, thereby inducing a better detection of the redox labeled-target. […] (C) Heterologous electrochemically competitive assay, wherein the oligonucleotide ligand is attached to the electrode: the presence of the target disrupts the complex formed between the oligonucleotide ligand and the redox-labeled target, thereby reducing the detection of the redox labeled-target. […] (f) CV of 1 µM [Os(bpy)3]^2+ alone. […] Error bars: standard deviations from 3 measurements. Plain lines: fits of eq 5 to the experimental data. • Figure 3: (A) CVs (v = 0.05 V s^-1) of 5 mM Tris buffer (pH 7.0) containing 50 mM NaCl, 10 mM Mg^2+, 5 µM Fc-L-Tym and (a) 0 µM, (b) 1 µM, (c) 2 µM, (d) 3 µM, (e) 4 µM (f) 5 µM (g) 7.5 µM (h) 10 µM (i) 12.5 µM and (j) 15 µM of D-Apt49. (B) Normalized anodic peak current response as a function of aptamer concentration. Each data is the average of 3 measurements. Error bars are standard deviations. Plain line: fit of eq 5 to the experimental data. • Figure 4: Competitive binding curves performed in (A) 5 mM Tris buffer (pH 7 + 50 mM NaCl + 10 mM MgCl2) or (B) 20% fetal bovine serum (simply diluted with a 4 mM MgCl2 aqueous solution) as a function of (●, ★, ▼, Δ) L-Tym or (○) D-Tym concentration. (*) Assay of 5 µM L-Tym in the presence of 5 mM D-Tym. The Fc-L-Tym concentration was always C^0T*= 5 µM, whereas the D-Apt49 concentrations were C^0R: (●) 3, (★,○,*) 10, (▼) 40 and (Δ) 100 µM.
The enantiospecificity of the assay was next characterized using the same methodology but for solutions containing the D-Tym enantiomer. […] To evaluate the enantiospecific performance of the aptamer, the assay of trace amount of L-Tym in the presence of a large excess of D-Tym was examined and, as reported in Figure 4A, it has been found possible to detect as low as 5 µM L-Tym in the presence of 5 mM D-Tym. This remarkable performance means that as low as 0.1 % of an enantiomeric impurity in a nonracemic mixture can be assayed in a very short analysis time (<1 min). This is competitive with conventional separation techniques, and one order of magnitude lower than the 1% currently attainable by NMR. Finally, the ability to perform an assay under realistic biological conditions was examined. For such purpose, homogenous electrochemical competitive binding assays of 5-fold diluted fetal bovin serum samples spiked with known amounts of […] were then performed (Figure 4B).

For assay [1], the target named is anti-L-tyrosinamide aptamer. To be noted: previously determined by fluorescence polarization; cited from earlier work.
Assay [2] addresses anti-L-tyrosinamide aptamer. To be noted: previously determined by isothermal titration calorimetry; cited from earlier work.
Assay [3] relates to 49-mer scramble oligonucleotide. As to the kind of experiment: Redox-mediated catalytic cyclic voltammetry titration with random DNA control. The assay is classed as binding. To be noted: random sequence with the same GC ratio. How it is done:
2-Amino-1,3-propanediol hydrochloride (Aldrich), 2-amino-1,3-propanediol (Aldrich), NaCl (Fluka), MgCl2 (Sigma), 1-tyrosinamide (Aldrich), d-tyrosinamide (Millegen, France), paracetamol (Aldrich) and tyrosine (Sigma), triphenylphosphine (Aldrich), diethylazidocarboxylate solution (DEAD) (Aldrich), and ferrocene methanol (Aldrich) were used without further purification. All syntheses were performed with freshly distilled solvents (THF and MeOH). The oligonucleotides (1-DNA and d-DNA) were synthesized and HPLC-purified by Eurogentec (Anger, France) and their concentration was controlled by UV-Vis spectroscopy using a Nanodrop 2000 spectrophotometer (ThermoFisher). The oligonucleotides sequences were: • Apt49-T: (SEQ ID NO: 1) 5'-[…] ― 3' • Scramble: (SEQ ID NO: 2) 5'- […] ― 3'
All experiments were performed in 5 mM Tris buffer (pH 7) containing 10 mM MgCl2 and 50 mM NaCl (Recognition Buffer, RBr). The L-Tym concentration is always 5 µM. For cyclic voltammetric experiments, 1 µM [Os(bpy)3]2+ with 5 µM 1-Tym in a droplet of 50 µL RBr was used. So, before each experiment, the droplet is shaking with a micropipette. This procedure is repeated until we obtain a reproducible and stable voltammogram. Mother solution of Fc-1-Tym was a […] solution in DMF. This product is conserved at 4°C and seal with parafilm. […]

Structures are written as SMILES. Like-named read-outs stand apart in the source and are kept apart here.

As for `NC(=O)[C@@H](N)Cc1ccc(O)cc1` [L-Tym, L-tyrosinamide], the Kd is 10 µM on D-Apt49 (5-fold diluted fetal bovine serum, average of the fitted curves, read-out: Kd (average value)); 9 µM at D-Apt49 (20% fetal bovine serum, 5 µM Fc-L-Tym, 40 µM D-Apt49, read-out: Kd); 11 µM on D-Apt49 (20% fetal bovine serum, 5 µM Fc-L-Tym, 100 µM D-Apt49, read-out: Kd); 1.7 to 2.2 µM in assay [1]; 1.75 to 3.2 µM in assay [2]. The “current response when the aptamer was replaced by a 49-mer random DNA sequence” value in assay [3] is reported as “no significant current response decrease”.

Values taken from EP2657347A1, “Electrochemical competitive assay and use thereof” (Université Paris Diderot - Paris 7, priority 2012, dated 2013).
